# Data published in PubChem BioAssay (NCI).
#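 Five concentrations, 48 hours, 96-well plates. TGI marks complete inhibition of growth.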
# Columns and labels:
# Assay in all cases: growth of human tumour cells (NCI), 48 h
# [1] = tested on: 786-0 renal
# [2] = tested on: A549 NSCLC
# [3] = tested on: ACHN renal
# [4] = tested on: BT-549 breast
# [5] = tested on: CCRF-CEM leukemia
# [6] = tested on: COLO 205 colon
# [7] = tested on: DU-145 prostate
# [8] = tested on: EKVX NSCLC
# [9] = tested on: HCC-2998 colon
# [10] = tested on: HCT-116 colon
# [11] = tested on: HCT-15 colon
# [12] = tested on: HL-60(TB) leukemia
# [13] = tested on: HOP-62 NSCLC
# [14] = tested on: HOP-92 NSCLC
# [15] = tested on: HS 578T breast
# [16] = tested on: HT29 colon
# [17] = tested on: IGROV1 ovarian
# [18] = tested on: K-562 leukemia
# [19] = tested on: KM12 colon
# [20] = tested on: M14 melanoma
# [21] = tested on: MALME-3M melanoma
# [22] = tested on: MCF7 breast
# [23] = tested on: MDA-MB-231 breast
# [24] = tested on: MDA-MB-435
# [25] = tested on: MDA-N
# [26] = tested on: MOLT-4 leukemia
# [27] = tested on: NCI-H226 lung
# [28] = tested on: NCI-H23 lung
# [29] = tested on: NCI-H460 lung
# [30] = tested on: NCI-H522 lung
# [31] = tested on: NCI/ADR-RES ovarian
# [32] = tested on: OVCAR-3 ovarian
# [33] = tested on: OVCAR-4 ovarian
# [34] = tested on: OVCAR-5 ovarian
# [35] = tested on: OVCAR-8 ovarian
# [36] = tested on: PC-3 prostate
# [37] = tested on: RPMI-8226 leukemia
# [38] = tested on: RXF 393 renal
# [39] = tested on: SF-268 CNS
# [40] = tested on: SF-295 CNS
# [41] = tested on: SF-539 CNS
# [42] = tested on: SK-MEL-28 melanoma
# [43] = tested on: SK-MEL-5 melanoma
# [44] = tested on: SK-OV-3 ovarian
# [45] = tested on: SN12C renal
# [46] = tested on: SNB-19 CNS
# [47] = tested on: SNB-75 CNS
# [48] = tested on: SR leukemia
# [49] = tested on: SW-620 colon
# [50] = tested on: T-47D breast
# [51] = tested on: TK-10 renal
# [52] = tested on: U251 CNS
# [53] = tested on: UACC-257 melanoma
# [54] = tested on: UACC-62 melanoma
# [55] = tested on: UO-31 renal
# [56] = tested on: CAKI-1 renal
# [57] = tested on: LOX IMVI melanoma
# [58] = tested on: SK-MEL-2 melanoma
smiles,measurement,setting,value
Cn1cc(NC(=O)Nc2cc(C(=O)Nc3cc(C(=O)Nc4ccc(S(=O)(=O)O)c5cc(S(=O)(=O)O)ccc45)n(C)c3)n(C)c2)cc1C(=O)Nc1cc(C(=O)Nc2ccc(S(=O)(=O)O)c3cc(S(=O)(=O)O)ccc23)n(C)c1,TGI,[1],> 100 µM
same,TGI,[2],> 100 µM
same,TGI,[3],> 100 µM
same,TGI,[4],> 100 µM
same,TGI,[5],> 100 µM
same,TGI,[6],> 100 µM
same,TGI,[7],> 100 µM
same,TGI,[8],> 100 µM
same,TGI,[9],> 100 µM
same,TGI,[10],> 100 µM
same,TGI,[11],> 100 µM
same,TGI,[12],> 100 µM
same,TGI,[13],> 100 µM
same,TGI,[14],> 100 µM
same,TGI,[15],> 100 µM
same,TGI,[16],> 100 µM
same,TGI,[17],> 100 µM
same,TGI,[18],> 100 µM
same,TGI,[19],> 100 µM
same,TGI,[20],> 100 µM
same,TGI,[21],> 100 µM
same,TGI,[22],> 100 µM
same,TGI,[23],> 100 µM
same,TGI,[24],> 100 µM
same,TGI,[25],> 100 µM
same,TGI,[26],> 100 µM
same,TGI,[27],> 100 µM
same,TGI,[28],> 100 µM
same,TGI,[29],> 100 µM
same,TGI,[30],> 100 µM
same,TGI,[31],> 100 µM
same,TGI,[32],> 100 µM
same,TGI,[33],> 100 µM
same,TGI,[34],> 100 µM
same,TGI,[35],> 100 µM
same,TGI,[36],> 100 µM
same,TGI,[37],> 100 µM
same,TGI,[38],> 100 µM
same,TGI,[39],> 100 µM
same,TGI,[40],> 100 µM
same,TGI,[41],> 100 µM
same,TGI,[42],> 100 µM
same,TGI,[43],> 100 µM
same,TGI,[44],> 100 µM
same,TGI,[45],> 100 µM
same,TGI,[46],> 100 µM
same,TGI,[47],> 100 µM
same,TGI,[48],> 100 µM
same,TGI,[49],> 100 µM
same,TGI,[50],> 100 µM
same,TGI,[51],> 100 µM
same,TGI,[52],> 100 µM
same,TGI,[53],> 100 µM
same,TGI,[54],> 100 µM
same,TGI,[55],> 100 µM
C/C=C(/C)C(=O)O[C@@H]1CCN2CC[C@H](COC(=O)/C(=C/C)CO)C12 (stereo partly drawn),TGI,[1],> 100 µM
same,TGI,[2],> 100 µM
same,TGI,[3],> 100 µM
same,TGI,[4],> 100 µM
same,TGI,[56],> 100 µM
same,TGI,[5],> 100 µM
same,TGI,[6],42.7 µM
same,TGI,[7],> 100 µM
same,TGI,[8],> 100 µM
same,TGI,[9],44 µM
same,TGI,[10],> 100 µM
same,TGI,[11],> 100 µM
same,TGI,[12],> 100 µM
same,TGI,[13],> 100 µM
same,TGI,[14],> 100 µM
same,TGI,[15],> 93.4 µM
same,TGI,[16],> 31.6 µM
same,TGI,[17],> 100 µM
same,TGI,[18],18.3 µM
same,TGI,[19],> 100 µM
same,TGI,[57],> 100 µM
same,TGI,[20],36.3 µM
same,TGI,[21],84.2 µM
same,TGI,[22],> 100 µM
same,TGI,[23],> 100 µM
same,TGI,[24],> 100 µM
same,TGI,[25],> 100 µM
same,TGI,[26],> 100 µM
same,TGI,[27],> 100 µM
same,TGI,[28],> 100 µM
same,TGI,[29],> 100 µM
same,TGI,[30],> 100 µM
same,TGI,[31],> 100 µM
same,TGI,[32],> 100 µM
same,TGI,[33],> 100 µM
same,TGI,[34],> 100 µM
same,TGI,[35],> 100 µM
same,TGI,[36],> 100 µM
same,TGI,[37],> 87.8 µM
same,TGI,[38],> 100 µM
same,TGI,[39],> 100 µM
same,TGI,[40],> 100 µM
same,TGI,[41],> 100 µM
same,TGI,[58],> 100 µM
same,TGI,[42],> 100 µM
same,TGI,[43],> 62 µM
same,TGI,[44],> 100 µM
same,TGI,[45],> 100 µM
same,TGI,[46],> 100 µM
same,TGI,[47],> 100 µM
same,TGI,[48],> 100 µM
same,TGI,[49],> 100 µM
same,TGI,[50],> 100 µM
same,TGI,[51],> 100 µM
same,TGI,[52],> 100 µM
same,TGI,[53],99.7 µM
same,TGI,[54],> 100 µM
same,TGI,[55],> 100 µM
